{"source": "patent US6576771B1", "about": "“Oxymethoxy-3-aryl-pyrone derivatives” (Bayer Aktiengesellschaft, priority 1995, dated 2003)", "key": {"[1]": {"test_system": "Sphaerotheca fuliginea", "experiment": "Sphaerotheca test (cucumber) / protective", "settings": "active compound concentration 100 ppm, evaluation 10 days after inoculation", "quoted_text": "Solvent: 4.7 parts by weight of acetone\nEmulsifier: 0.3 parts by weight of alkylaryl polyglycol ether\nAfter the spray coating has dried on, the plants are dusted with conidia of the fungus Sphaerotheca fuliginea.\nThe plants are then placed in a greenhouse at 23 to 24° C. and at a relative atmospheric humidity of about 75%.\nEvaluation is carried out 10 days after the inoculation."}, "[2]": {"test_system": "caterpillars of the diamond-back moth (Plutella maculipennis)", "experiment": "Plutella test", "type": "in vivo", "settings": "after 7 days; active compound concentration 0.1%; cabbage leaves dipped", "procedure": "(§1) Plutella Test Solvent: 7 parts by weight of dimethylformamide Emulsifier: 1 part by weight of alkylaryl polyglycol ether […] Cabbage leaves (Brassica oleracea) are treated by being dipped into the preparation of the active compound of the desired concentration and are infested with caterpillars of the diamond-back moth (Plutella maculipennis), while the leaves are still moist."}, "[3]": {"test_system": "mustard beetle larvae (Phaedon cochleariae)", "experiment": "Phaedon larvae test", "type": "in vivo", "settings": "after 7 days; active compound concentration 0.01%; cabbage leaves dipped", "procedure": "as §1, with “Phaedon Larvae” for “Plutella”, “mustard beetle larvae (Phaedon cochleariae),” for “caterpillars of the diamond-back moth (Plutella maculipennis),”"}, "[4]": {"test_system": "larvae of the green rice leafhopper (Nephotettix cincticeps)", "experiment": "Nephotettix test", "type": "in vivo", "settings": "after 6 days; active compound concentration 0.1%; rice seedlings dipped", "procedure": "Nephotettix Test Solvent: 7 parts by weight of dimethylformamide Emulsifier: 1 part by weight of alkylaryl polyglycol ether […] Rice seedlings (Oryzae sativa) are treated by being dipped into the preparation of the active compound of the desired concentration and are infested with larvae of the green rice leafhopper (Nephotettix cincticeps), while the seedlings are still moist."}, "[5]": {"test_system": "caterpillars of the owlet moth (Spodoptera frugiperda)", "experiment": "Spodoptera test", "type": "in vivo", "settings": "after 7 days; active compound concentration 0.1%; cabbage leaves dipped", "procedure": "Solvent: 7 parts by weight of dimethylformamide\n(§2) Emulsifier: 1 part by weight of alkylaryl polyglycol ether\nCabbage leaves (Brassica oleracea) are treated by being dipped into the preparation of the active compound of the desired concentration and are infested with caterpillars of the owlet moth (Spodoptera frugiperda), while the leaves are still moist.\nAfter the specified period of time, the destruction in % is determined. 100% means that all the caterpillars have been killed; 0% means that none of the caterpillars have been killed."}, "[6]": {"test_system": "All larval stages of Lucilia cuprina (OP resistant)", "experiment": "Test with fly larvae / development-inhibiting activity", "type": "in vivo", "settings": "active compound concentration 1000 ppm", "procedure": "Test with Fly Larvae/Development-inhibiting Activity\nTest animals: All larval stages of Lucilia cuprina (OP resistant) [Pupae and adults (without contact with the active compound)]\nSolvent: 35 parts by weight of ethylene glycol monomethyl ether 35 parts by weight of nonylphenol polyglycol ether\nFor each concentration, 30 to 50 larvae are introduced into test tubes containing horse meat (1 cm^3), onto which […] of the dilution under test are pipetted. The glass test tubes are placed in plastic beakers which have bottoms covered with sea sand and are kept in an air-conditioned room (26° C.±1.5° C., 70% relative humidity ±10%). The action is inspected after 24 hours and 48 hours (larvicidal action). After emigration of the larvae (approximately 72 h), the test tubes are removed and perforated plastic lids are placed on the beakers. After 1½ times the development period (emergence of the control flies), the emerged flies and the pupae/pupal cases are counted.\nThe criterion of activity used is the occurrence of death of the treated larvae after 48 h (larvicidal effect), or the inhibition of adult emergence from the pupae, or inhibition of pupal formation. The criterion used for the in-vitro activity of a substance is inhibition of fly development, or cessation of development prior to the adult stage. 100% larvicidal activity means that all larvae have died after 48 hours. 100% development inhibition activity means that no adult flies emerged."}, "[7]": {"test_system": "common spider mite (Tetranychus urticae)", "experiment": "Tetranychus test (resistance)", "type": "in vivo", "settings": "after 13 days; active compound concentration 0.01%; bean plants dipped", "procedure": "Tetranychus Test (Resistance)\nSolvent: 3 parts by weight of dimethylformamide\nas §2\nAfter the specified period of time, the destruction in % is determined. 100% means that all the spider mites have been killed 0% means that none of the spider mites have been killed."}, "[8]": {"test_system": "black bean aphids (Aphis fabae)", "experiment": "Limit concentration test / root-systemic action", "type": "in vivo", "settings": "active compound concentration 20 ppm in soil; beans (Vicia faba); leaves infested after 7 days, evaluated after a further 2 days", "from_the_text": "Limit Concentration Test/Root-systemic Action Test insect: Aphis fabae Solvent: 4 parts by weight of acetone Emulsifier: 1 part by weight of alkylaryl polyglycol ether […] The preparation of active compound is intimately mixed with soil. The concentration of the active compound in the preparation is of no importance in practise, only the amount by weight of active compound per unit volume of soil, which is given in ppm (=mg/l), being decisive. The treated soil is transferred into pots and these are planted with beans (Vicia faba). The active compound can in this way be taken up from the soil by the roots of the plants and be transported into the leaves. […] After a further 2 days, the evaluation is made by counting or estimating the dead animals. The root-systemic action of the active compound is deduced from the destruction figures."}}}
{"smiles": "Cc1cc(C)c(-c2c(OCOCC(C)C)c(C)c(-c3ccc(F)cc3)oc2=O)c(C)c1", "note": "[Example 8]", "values": [{"measurement": "activity in comparison with the untreated control", "setting": "[1]", "result": 100, "unit": "%"}]}
{"smiles": "Cc1cc(C)c(-c2c(OCOCC(C)C)c(C)c(-c3cccc(C)n3)oc2=O)c(C)c1", "note": "[Example 27]", "values": [{"measurement": "degree of destruction", "setting": "[2]", "result": 100, "unit": "%"}, {"measurement": "degree of destruction", "setting": "[3]", "result": 100, "unit": "%"}, {"measurement": "degree of destruction", "setting": "[4]", "result": 100, "unit": "%"}]}
{"smiles": "CCOCOc1c(C)c(C2CCCC2)oc(=O)c1-c1c(C)cc(C)cc1C", "note": "[Example 32]", "values": [{"measurement": "degree of destruction", "setting": "[2]", "result": 100, "unit": "%"}, {"measurement": "degree of destruction", "setting": "[4]", "result": 100, "unit": "%"}, {"measurement": "degree of destruction", "setting": "[5]", "result": 100, "unit": "%"}]}
{"smiles": "Cc1cc(C)c(-c2c(OCOC(C)C)c(C)c(C3CCCC3)oc2=O)c(C)c1", "note": "[Example 34]", "values": [{"measurement": "degree of destruction", "setting": "[2]", "result": 100, "unit": "%"}, {"measurement": "degree of destruction", "setting": "[5]", "result": 100, "unit": "%"}]}
{"smiles": "Cc1cc(C)c(-c2c(OCOC(C)C)c(C)c(-c3cccc(C)n3)oc2=O)c(C)c1", "note": "[Example 28]", "values": [{"measurement": "degree of destruction", "setting": "[2]", "result": 100, "unit": "%"}, {"measurement": "degree of destruction", "setting": "[3]", "result": 100, "unit": "%"}, {"measurement": "degree of destruction", "setting": "[4]", "result": 100, "unit": "%"}]}
{"smiles": "CCOCOc1c(C)c(-c2ccccn2)oc(=O)c1-c1c(C)cc(C)cc1C", "note": "[Example 26]", "values": [{"measurement": "degree of destruction", "setting": "[3]", "result": 100, "unit": "%"}, {"measurement": "degree of destruction", "setting": "[4]", "result": 100, "unit": "%"}]}
{"smiles": "CCOCOc1cc(CC(C)C)oc(=O)c1-c1c(C)cc(C)cc1C", "note": "[Example 5]", "values": [{"measurement": "degree of destruction", "setting": "[2]", "result": 100, "unit": "%"}, {"measurement": "degree of destruction", "setting": "[3]", "result": 100, "unit": "%"}, {"measurement": "degree of destruction", "setting": "[5]", "result": 100, "unit": "%"}]}
{"smiles": "Cc1cc(C)c(-c2c(OCOCC(C)C)c(C)c(-c3ccc(Cl)cc3)oc2=O)c(C)c1", "note": "[Example 2, 6-(4-chlorophenyl)-4-[(2-methyl-1-propoxy)-methoxy]-5-methyl-3-(2,4,6-trimethylphenyl)-2-pyrone]", "values": [{"measurement": "activity in comparison with the untreated control", "setting": "[1]", "result": 100, "unit": "%"}]}
{"smiles": "CCOCOc1c(C)c(-c2ccc(F)cc2)oc(=O)c1-c1c(C)cc(C)cc1C", "note": "[Example 4]", "values": [{"measurement": "activity in comparison with the untreated control", "setting": "[1]", "result": 100, "unit": "%"}, {"measurement": "degree of destruction", "setting": "[2]", "result": 100, "unit": "%"}, {"measurement": "degree of destruction", "setting": "[3]", "result": 100, "unit": "%"}, {"measurement": "activity (larvicidal / development inhibition)", "setting": "[6]", "result": 100, "unit": "%"}, {"measurement": "degree of destruction", "setting": "[4]", "result": 100, "unit": "%"}, {"measurement": "degree of destruction", "setting": "[5]", "result": 100, "unit": "%"}]}
{"smiles": "C#CCOCOc1c(C)c(C2CCCC2)oc(=O)c1-c1c(C)cc(C)cc1C", "note": "[Example 33]", "values": [{"measurement": "degree of destruction", "setting": "[4]", "result": 100, "unit": "%"}]}
{"smiles": "Cc1cc(C)c(-c2c(OCOCC(C)C)oc(-c3ccsc3)c(C)c2=O)c(C)c1", "note": "[Example 36, 2-[(2-Methyl-1-propoxy)-methoxy]-5-methyl-6-(3-thienyl)-3-(2,4,6-trimethyl-phenyl)-4-pyrone]", "values": [{"measurement": "melting point", "result": "102 to 104", "unit": "°C"}]}
{"smiles": "Cc1cc(C)c(-c2c(OCOC(C)C)c(C)c(-c3ccccn3)oc2=O)c(C)c1", "note": "[Example 11]", "values": [{"measurement": "activity in comparison with the untreated control", "setting": "[1]", "result": 100, "unit": "%"}, {"measurement": "degree of destruction", "setting": "[7]", "result": 100, "unit": "%"}, {"measurement": "activity (larvicidal / development inhibition)", "setting": "[6]", "result": 100, "unit": "%"}, {"measurement": "degree of destruction", "setting": "[4]", "result": 100, "unit": "%"}, {"measurement": "degree of destruction (root-systemic action)", "setting": "[8]", "result": 100, "unit": "%"}]}
{"smiles": "Cc1cc(C)c(-c2c(OCOCC(C)C)c(C)c(-c3ccccn3)oc2=O)c(C)c1", "note": "[Example 10]", "values": [{"measurement": "activity in comparison with the untreated control", "setting": "[1]", "result": 100, "unit": "%"}, {"measurement": "degree of destruction", "setting": "[2]", "result": 100, "unit": "%"}, {"measurement": "degree of destruction", "setting": "[7]", "result": 100, "unit": "%"}, {"measurement": "activity (larvicidal / development inhibition)", "setting": "[6]", "result": 100, "unit": "%"}, {"measurement": "degree of destruction (root-systemic action)", "setting": "[8]", "result": 100, "unit": "%"}]}
{"smiles": "C#CCOCOc1c(C)c(-c2ccccn2)oc(=O)c1-c1c(C)cc(C)cc1C", "note": "[Example 1, 5-methyl-6-(2-pyridyl)-4-propargyloxymethoxy-3-(2,4,6-trimethylphenyl)-2-pyrone]", "values": [{"measurement": "activity in comparison with the untreated control", "setting": "[1]", "result": 100, "unit": "%"}, {"measurement": "inhibition at 1000 ppm", "setting": "[6]; Lucilia cuprina, read-out: activity (larvicidal / development inhibition)", "result": 100, "unit": "%"}, {"measurement": "degree of destruction", "setting": "[4]", "result": 100, "unit": "%"}, {"measurement": "degree of destruction (root-systemic action)", "setting": "[8]", "result": 100, "unit": "%"}]}
{"smiles": "Cc1cc(C)c(-c2c(OCOC(C)C)c(C)c(-c3ccc(F)cc3)oc2=O)c(C)c1", "note": "[Example 9]", "values": [{"measurement": "activity in comparison with the untreated control", "setting": "[1]", "result": 100, "unit": "%"}, {"measurement": "degree of destruction", "setting": "[2]", "result": 100, "unit": "%"}, {"measurement": "degree of destruction", "setting": "[7]", "result": 100, "unit": "%"}, {"measurement": "degree of destruction", "setting": "[3]", "result": 100, "unit": "%"}, {"measurement": "activity (larvicidal / development inhibition)", "setting": "[6]", "result": 100, "unit": "%"}, {"measurement": "degree of destruction", "setting": "[4]", "result": 100, "unit": "%"}, {"measurement": "degree of destruction", "setting": "[5]", "result": 100, "unit": "%"}]}
{"smiles": "Cc1cc(C)c(-c2c(OCOC(C)C)cc(C3(Cl)CC3)oc2=O)c(C)c1", "note": "[Example 21]", "values": [{"measurement": "activity in comparison with the untreated control", "setting": "[1]", "result": 100, "unit": "%"}, {"measurement": "degree of destruction", "setting": "[7]", "result": 100, "unit": "%"}, {"measurement": "degree of destruction", "setting": "[4]", "result": 100, "unit": "%"}]}
{"smiles": "C#CCOCOc1c(C)c(-c2ccc(F)cc2)oc(=O)c1-c1c(C)cc(C)cc1C", "note": "[Example 7]", "values": [{"measurement": "activity in comparison with the untreated control", "setting": "[1]", "result": 100, "unit": "%"}, {"measurement": "degree of destruction", "setting": "[4]", "result": 100, "unit": "%"}]}
